Each structure is given as a SMILES string. Some results are limits rather than exact numbers.

The test system of one series is J82. Kind of series: MTT test, cytotoxic activity on non-clonogenic cell lines. It counts as cell-based. The following applies: Homo sapiens, 10^−5 M, 72 hours of incubation, control condition = 100%, mean value, read-out: mean optical density as percentage of control, J82. Put shortly: (§1)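 Human bladder cancer lines were seeded at 20 000–50 000 cells/ml and, after 24 h, exposed to compounds at 10^−5 to 10^−10 M against a solvent control. Formazan was dissolved in DMSO and viability was read by spectrophotometric optical density.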
A general note: Tetrazolium assays rely on reduction of a dye to a coloured formazan, in cell work by metabolically active cells.
With `COc1ccc(-c2c[nH]c3c(OC)cccc3c2=O)cc1` [CRL8329, 8-Methoxy-3-(4-methoxyphenyl)-1,4-dihydro-4-quinolinone], the viability at 10 µM stood at 96.8%.

As for `COc1ccc(-c2cn(CCN(C)C)c3cc(OC)cc(OC)c3c2=O)cc1` [CRL8350, N-[3-(Dimethylamino)ethyl]-5,7-dimethoxy-3-(4-methoxyphenyl)-1,4-dihydro-4-quinolinone], the viability at 10 µM came to 91.5%.

The next series relates to T24. Described as above. It counts as cell-based. The following applies: Homo sapiens, T-24; 10^−5 M, 72 hours of incubation, control condition = 100%, mean value; read-out: mean optical density as percentage of control, T24. In short, it runs like this:
as §1
Regarding `COc1ccc(-c2c[nH]c3c(OC)cccc3c2=O)cc1` [CRL8329, 8-Methoxy-3-(4-methoxyphenyl)-1,4-dihydro-4-quinolinone], the viability at 10 µM came out at 95.4%.

With `COc1ccc(-c2cn(CCN(C)C)c3cc(OC)cc(OC)c3c2=O)cc1` [CRL8350, N-[3-(Dimethylamino)ethyl]-5,7-dimethoxy-3-(4-methoxyphenyl)-1,4-dihydro-4-quinolinone], the viability at 10 µM is 86.9%.

In the next series the test system is A549. Described as above. The class given is cell-based. The following applies: Homo sapiens, 10^−5 M, 72 hours of incubation, control condition = 100%, mean value, read-out: mean optical density as percentage of control, A549. In short, it runs like this: (§2)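 Compounds span 10^−5 to 10^−10 M, with solvent-treated wells as control, and the formazan is quantified by absorbance after DMSO solubilization.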
As to `COc1ccc(-c2c[nH]c3c(OC)cccc3c2=O)cc1` [CRL8329, 8-Methoxy-3-(4-methoxyphenyl)-1,4-dihydro-4-quinolinone], the viability at 10 µM is 96.5%.

Consider `COc1ccc(-c2cn(CCN(C)C)c3cc(OC)cc(OC)c3c2=O)cc1` [CRL8350, N-[3-(Dimethylamino)ethyl]-5,7-dimethoxy-3-(4-methoxyphenyl)-1,4-dihydro-4-quinolinone], for which the viability at 10 µM came out at 93%.

Another series concerns LoVo. Described as above. It counts as cell-based. The following applies: Homo sapiens, 10^−5 M, 72 hours of incubation, control condition = 100%, mean value, read-out: mean optical density as percentage of control, LoVo. Put shortly: as §2
With `COc1ccc(-c2c[nH]c3c(OC)cccc3c2=O)cc1` [CRL8329, 8-Methoxy-3-(4-methoxyphenyl)-1,4-dihydro-4-quinolinone], the viability at 10 µM amounted to 94.6%.

For the molecule `COc1ccc(-c2cn(CCN(C)C)c3cc(OC)cc(OC)c3c2=O)cc1` [CRL8350, N-[3-(Dimethylamino)ethyl]-5,7-dimethoxy-3-(4-methoxyphenyl)-1,4-dihydro-4-quinolinone], the viability at 10 µM amounted to 92%.

The subject of the next series is MCF7. The series is described as above. It counts as cell-based. The note with it: Homo sapiens, 10^−5 M, 72 hours of incubation, control condition = 100%, mean value, read-out: mean optical density as percentage of control, MCF7. In short, it runs like this: as §2
For the molecule `COc1ccc(-c2c[nH]c3c(OC)cccc3c2=O)cc1` [CRL8329, 8-Methoxy-3-(4-methoxyphenyl)-1,4-dihydro-4-quinolinone], the viability at 10 µM worked out at 96.3%.

Consider `COc1ccc(-c2cn(CCN(C)C)c3cc(OC)cc(OC)c3c2=O)cc1` [CRL8350, N-[3-(Dimethylamino)ethyl]-5,7-dimethoxy-3-(4-methoxyphenyl)-1,4-dihydro-4-quinolinone], for which the viability at 10 µM was found to be 181%.

For a further series, the system named is T-47D. Described as above. The note with it: Homo sapiens, T47D; 10^−5 M, 72 hours of incubation, control condition = 100%, mean value; read-out: mean optical density as percentage of control, T-47D. The class given is cell-based. In short, it runs like this:
as §2
For the molecule `COc1ccc(-c2c[nH]c3c(OC)cccc3c2=O)cc1` [CRL8329, 8-Methoxy-3-(4-methoxyphenyl)-1,4-dihydro-4-quinolinone], the viability at 10 µM was 78.5%.

Consider `COc1ccc(-c2cn(CCN(C)C)c3cc(OC)cc(OC)c3c2=O)cc1` [CRL8350, N-[3-(Dimethylamino)ethyl]-5,7-dimethoxy-3-(4-methoxyphenyl)-1,4-dihydro-4-quinolinone], for which the viability at 10 µM was found to be 87.1%.

For another series, the system named is HCT-15. The description is as above. The class given is cell-based. The note with it: Homo sapiens, 10^−5 M, 72 hours of incubation, control condition = 100%, mean value, read-out: mean optical density as percentage of control, HCT-16. In short, it runs like this: as §2
`COc1ccc(-c2c[nH]c3c(OC)cccc3c2=O)cc1` [CRL8329, 8-Methoxy-3-(4-methoxyphenyl)-1,4-dihydro-4-quinolinone]: the viability at 10 µM amounted to 98%.

For `COc1ccc(-c2cn(CCN(C)C)c3cc(OC)cc(OC)c3c2=O)cc1` [CRL8350, N-[3-(Dimethylamino)ethyl]-5,7-dimethoxy-3-(4-methoxyphenyl)-1,4-dihydro-4-quinolinone], the viability at 10 µM was 95.3%.

The test system of a further series is U-87MG. Described as above. The class given is cell-based. The following applies: Homo sapiens, U-87 MG; 10^−5 M, 72 hours of incubation, control condition = 100%, mean value; read-out: mean optical density as percentage of control, U-87MG. In short, it runs like this:
as §2
`COc1ccc(-c2c[nH]c3c(OC)cccc3c2=O)cc1` [CRL8329, 8-Methoxy-3-(4-methoxyphenyl)-1,4-dihydro-4-quinolinone]: the viability at 10 µM came to 1.38%.

`COc1ccc(-c2cn(CCN(C)C)c3cc(OC)cc(OC)c3c2=O)cc1` [CRL8350, N-[3-(Dimethylamino)ethyl]-5,7-dimethoxy-3-(4-methoxyphenyl)-1,4-dihydro-4-quinolinone]: the viability at 10 µM came to 85.6%.

A further series has as its system U-373MG. The series is described as above. The class given is cell-based. The note with it: Homo sapiens, U373 MG; 10^−5 M, 72 hours of incubation, control condition = 100%, mean value; read-out: mean optical density as percentage of control, U-373MG. Put shortly:
as §2
As to `COc1ccc(-c2c[nH]c3c(OC)cccc3c2=O)cc1` [CRL8329, 8-Methoxy-3-(4-methoxyphenyl)-1,4-dihydro-4-quinolinone], the viability at 10 µM was determined as 94%.

As to `COc1ccc(-c2cn(CCN(C)C)c3cc(OC)cc(OC)c3c2=O)cc1` [CRL8350, N-[3-(Dimethylamino)ethyl]-5,7-dimethoxy-3-(4-methoxyphenyl)-1,4-dihydro-4-quinolinone], the viability at 10 µM came out at 59.5%.

A further series concerns A-427. Described as above. The class given is cell-based. The note with it: Homo sapiens, 10^−5 M, 72 hours of incubation, control condition = 100%, mean value, read-out: mean optical density as percentage of control, A-427. Put shortly:
as §2
Take `COc1ccc(-c2c[nH]c3c(OC)cccc3c2=O)cc1` [CRL8329, 8-Methoxy-3-(4-methoxyphenyl)-1,4-dihydro-4-quinolinone]: the viability at 10 µM came to 102%.

`COc1ccc(-c2cn(CCN(C)C)c3cc(OC)cc(OC)c3c2=O)cc1` [CRL8350, N-[3-(Dimethylamino)ethyl]-5,7-dimethoxy-3-(4-methoxyphenyl)-1,4-dihydro-4-quinolinone]: the viability at 10 µM was found to be 99.5%.

The subject of another series is PC-3. The description is as above. The note with it: Homo sapiens, 10^−5 M, 72 hours of incubation, control condition = 100%, mean value, read-out: mean optical density as percentage of control, PC-3. The class given is cell-based. In short, it runs like this: as §2
`COc1ccc(-c2c[nH]c3c(OC)cccc3c2=O)cc1` [CRL8329, 8-Methoxy-3-(4-methoxyphenyl)-1,4-dihydro-4-quinolinone]: the viability at 10 µM was 93.1%.

For `COc1ccc(-c2cn(CCN(C)C)c3cc(OC)cc(OC)c3c2=O)cc1` [CRL8350, N-[3-(Dimethylamino)ethyl]-5,7-dimethoxy-3-(4-methoxyphenyl)-1,4-dihydro-4-quinolinone], the viability at 10 µM turned out to be 95.3%.

Test system in another series: not listed separately
Briefly: Determination of the maximum tolerated dose (MTD). The following applies: B6D2F1/Jico, mouse, in vivo, ip; single intraperitoneal administration, doses 2.5 to 160 mg/kg, survival over 14 days. Put shortly: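 Mice were 4- to 6-week-old B6D2F1/Jico. They received a single intraperitoneal dose of 2.5 to 160 mg/kg, and survival and body weight were followed for 14 days. MTD is given in mg/kg and is capped at 160 mg/kg by default.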
The term MTD denotes the highest dose tested that stayed within the study's limit of toxicity. Low values mean a narrow tolerated range, high ones a wide tolerated range. In turn, `COc1ccc(-c2c[nH]c3c(OC)cccc3c2=O)cc1` [CRL8329, 8-Methoxy-3-(4-methoxyphenyl)-1,4-dihydro-4-quinolinone] yielded an MTD at 14 day of over 160 mg/kg.

The molecule `COc1ccc(-c2cn(CCN(C)C)c3cc(OC)cc(OC)c3c2=O)cc1` [CRL8350, N-[3-(Dimethylamino)ethyl]-5,7-dimethoxy-3-(4-methoxyphenyl)-1,4-dihydro-4-quinolinone] had an MTD at 14 day of over 160 mg/kg.

In a further series the test system is SW1088. Kind of series: MTT test, cytotoxic activity on non-clonogenic cell lines. The class given is cell-based. The note with it: Homo sapiens, 10^−5 M, 72 hours of incubation, control condition = 100%, mean value, read-out: mean optical density as percentage of control, SW1088. In short, it runs like this:
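Human astrocytoma SW1088 cells seeded, grown 24 h at 37° C, 5% CO2, then exposed to compounds at 10^−5 to 10^−10 M versus solvent control. Viability by MTT reduction: 3 h MTT incubation, formazan dissolved in DMSO and read by spectrophotometry.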
`COc1ccc(-c2c[nH]c3c(OC)cccc3c2=O)cc1` [CRL8329, 8-Methoxy-3-(4-methoxyphenyl)-1,4-dihydro-4-quinolinone]: the viability at 10 µM is 96.2%.

Turning to `COc1ccc(-c2cn(CCN(C)C)c3cc(OC)cc(OC)c3c2=O)cc1` [CRL8350, N-[3-(Dimethylamino)ethyl]-5,7-dimethoxy-3-(4-methoxyphenyl)-1,4-dihydro-4-quinolinone], the viability at 10 µM is 101%.

(Values after patent US6645983B1, “Pharmaceutical compositions comprising 4-quinolones for treating cancers” (Laboratoire L. Lafon, priority 1999, dated 2003).)
